pIC50: −log10 of the molar value.
Legend:
[1] = test system: MNK2 (MNK2a or MNK2b) or MNK1; settings: cell culture cells transfected with MNK2 (MNK2a or MNK2b) or MNK1; cited from earlier work
MNK1a = MNK1a (Homo sapiens (Human), UniProt Q9BUB5); assay: MNK1 in vitro kinase assay (Assay 3), Z'-LYTE; type: biochemical
MNK2a = MNK2a (Homo sapiens (Human), UniProt Q9HBH9); assay: MNK2a in vitro kinase assay (Assay 2), ADP-Glo; type: biochemical; settings: assay 2; read-out: MNK2 IC50
Text: B. MNK2a In Vitro Kinase Assay (Assay 2)

Sequence of MNK1a (Q9BUB5 other isoform, or with tags, fused parts or gaps): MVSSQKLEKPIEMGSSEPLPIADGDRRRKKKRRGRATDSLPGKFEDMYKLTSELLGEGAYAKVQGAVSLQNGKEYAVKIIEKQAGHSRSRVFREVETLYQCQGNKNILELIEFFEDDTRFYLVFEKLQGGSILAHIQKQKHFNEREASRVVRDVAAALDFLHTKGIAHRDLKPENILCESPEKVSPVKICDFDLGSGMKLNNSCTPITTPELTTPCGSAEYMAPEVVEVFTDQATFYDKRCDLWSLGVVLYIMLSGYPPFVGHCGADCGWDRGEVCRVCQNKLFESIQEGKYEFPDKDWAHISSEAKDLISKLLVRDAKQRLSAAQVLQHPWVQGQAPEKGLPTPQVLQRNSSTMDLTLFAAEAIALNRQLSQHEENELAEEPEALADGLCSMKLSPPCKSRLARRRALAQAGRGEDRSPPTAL
Sequence of MNK2a (Q9HBH9 whole entry): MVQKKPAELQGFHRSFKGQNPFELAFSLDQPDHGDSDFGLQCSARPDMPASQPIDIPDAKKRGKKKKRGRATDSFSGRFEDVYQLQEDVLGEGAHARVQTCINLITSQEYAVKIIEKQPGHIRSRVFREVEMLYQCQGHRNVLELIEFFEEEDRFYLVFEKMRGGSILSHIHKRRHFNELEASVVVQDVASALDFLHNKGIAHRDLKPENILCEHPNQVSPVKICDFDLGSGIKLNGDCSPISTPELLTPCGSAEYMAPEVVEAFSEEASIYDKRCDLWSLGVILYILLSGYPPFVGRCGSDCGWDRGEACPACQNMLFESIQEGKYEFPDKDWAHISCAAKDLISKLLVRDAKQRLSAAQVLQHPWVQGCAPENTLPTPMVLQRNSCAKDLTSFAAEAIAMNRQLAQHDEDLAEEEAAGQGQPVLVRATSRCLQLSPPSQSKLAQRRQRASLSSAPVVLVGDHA

pIC50 (MNK1a) | pIC50 (MNK2a) | SMILES | reduction of phosphorylated eIF4E [1]
 |  | Nc1ncnc2n[nH]c(Nc3ccc(F)cc3)c12 [CGP57380] | strong reduction of phosphorylated eIF4E
7.10 | 9.00 | CO[C@@H]1COC[C@@H]1Oc1cc(F)ccc1Nc1ncnc2cc(N=S(C)(C)=O)cc(C)c12 [Example 14.8] | 

Source: patent US10093660B2, “Sulfoximine substituted quinazolines for pharmaceutical compositions” (EVOTEC INTERNATIONAL GMBH, priority 2013, dated 2018)
